Two molecules from patent publication US10357035B2, “Microbiocidal anilide derivatives” (SYNGENTA PARTICIPATIONS AG, priority 2015, dated 2019) can be followed below.

One may read the melting point as the temperature of the solid-liquid transition.

`COc1ccnc(C(=O)Nc2ccc(OC3CCCCC3)cc2)c1O` [I.b.66, N-[4-(cyclohexoxy)phenyl]-3-hydroxy-4-methoxy-pyridine-2-carboxamide] displayed a melting point of 114 to 117 °C.
In the case of `CC1(C)CCC(Oc2ccc(NC(=O)c3cccc4ncoc34)c(F)c2)CC1` [I.r.133, N-[4-(4,4-dimethylcyclohexoxy)-2-fluoro-phenyl]-1,3-benzoxazole-7-carboxamide] it was 130 to 132 °C.
